Assay results: patent US20260355239A1, “COMBINATION OF A T CELL THERAPY AND CONTINUOUS OR INTERMITTENT DGK INHIBITOR DOSING” (Juno Therapeutics, Inc., priority 2022, published 2026)

Tests used:
[1] = tested on: CD19-expressing lymphoma cells (K562.CD19, Granta-519, Raji); assay: Cytolytic activity of chronically stimulated, concurrently treated CAR-T cells, 2D co-culture; format: cell-based, human; settings: concurrent treatment during chronic stimulation; 2D re-challenge without compound
Procedure: (§1) To simulate conditions of chronic stimulation, approximately 20,000 anti-CD19 CAR-expressing T cells of a combined CAR-T cell composition produced as described in Example 2 from two healthy adult donors were incubated with 30 µg/mL of plate-bound CAR-specific anti-idiotypic antibody (see, e.g., WO2018/023100) at 37 °C for a period of seven days. During this seven-day period, engineered CAR T cells were concurrently treated with Compound 17(0.1-1000 nM) or a vehicle control added at day 0.
Stimulated CAR T cells were then re-challenged with CD19-expressing tumor cells or tumor spheroids in the absence of Compound 17, and cytolytic activity and cytokine production were assessed.
To assess cytolytic function, the stimulated CAR-T cell composition was co-cultured with various CD19-expressing lymphoma cells at a 2.5:1 effector:target ratio. The tumor cells were engineered to express NucLight Red (NLR) and tumor cell number was monitored by Incucyte®. […] Duplicate values for cell compositions manufactured from the two different healthy donors are shown.

K562.CD19 cells = assay: Rescue treatment: cytolytic activity of chronically stimulated CAR-T cells, 2D, K562.CD19; format: cell-based, human; settings: higher concentrations, 2D co-culture
[2] = tested on: A549.CD19 and Granta-519 tumor spheroids; assay: Cytolytic activity of chronically stimulated, concurrently treated CAR-T cells, 3D spheroids; format: cell-based, human; settings: concurrent treatment during chronic stimulation, day 9
Procedure: as §1
To further assess activity of chronically stimulated cell, the chronically stimulated CAR-T cells that had been concurrently treated with DGKi were incubated with A549 CD19+ tumor spheroids or Granta-519 tumor spheroids to rechallenge the CAR-T cells at an effector to target ratio of 1:2 for up to 14 days. The tumor spheroids were engineered to express a red fluorescent dye to permit monitoring of tumor cell lysis by microscopy during the assay.
The antigen-specific cytolytic activity of the chronically stimulated CAR-expressing T cells was assessed by monitoring fluorescence (indicative of tumor cell lysis) over time. The tumor volume (normalized to time zero) was measured as the number of red calibrated units (RCU)×μm^2 area. […] Duplicate values for cell compositions manufactured from the two different healthy donors are shown.

[3] = tested on: anti-CD19 CAR-T cells with K562.CD19, Granta-519 and Raji cells; assay: CAR-T cell cytokine production in co-culture (MSD); format: cell-based, human
[4] = tested on: CD19-antigen expressing target cells (K562.CD19, Granta-519, Raji); assay: CAR-T cell cytolytic function in co-culture; format: cell-based, human; settings: 2.5:1 effector:target, compound present during co-culture
Text: T cell compositions containing T cells expressing an exemplary anti-CD19 CAR were generated from leukapheresis samples from two healthy human adult donors by a process that included immunoaffinity-based selection of T cells by separately selecting CD4+ and CD8+ cells from the samples, resulting in two compositions enriched for CD4+ and CD8+ cells, respectively, per donor. Cells of the enriched CD4+ and CD8+ compositions were separately activated with anti-CD3/anti-CD28 beads and subjected to lentiviral transduction with a vector encoding an anti-CD19 CAR. […]
Prior to use, the cryopreserved CD4+ and CD8+ CAR-engineered cell compositions were thawed and combined at approximately a 1:1 CD4:CD8 ratio for each donor to prepare a combined CD4+ CAR+ and CD8+ CAR+ T cell composition. The effects of treatment with Compound 17 at various concentrations (0.1 nM, 1 nM, 10 nM, 100 nM, or 1000 nM) added at day 0 during stimulation of the combined CAR-T cell composition with a plate-bound CAR-specific anti-idiotypic antibody (see, e.g., WO2018/023100) or during co-culture with CD19-expressing cells was then assessed.
The cytolytic function of T cells treated with Compound 17 was assessed following co-culture of the combined CAR-T cell composition with various CD19-expressing lymphoma cells at a 2.5:1 effector:target ratio in the presence of Compound 17. […]

[5] = tested on: anti-CD19 CAR-T cells with A549.CD19 and Granta-519 tumor spheroids; assay: Rescue treatment: cytokine production of chronically stimulated CAR-T cells, 3D spheroids; format: cell-based, human; settings: 3D spheroid co-culture, five days
Procedure: Anti-CD19 CAR-expressing T cells, produced as described in Example 2, were chronically stimulated with plate-bound CAR-specific anti-idiotypic antibody for seven days as described in Example 3, but in the absence of Compound 17 during chronic stimulation. Instead, chronically stimulated CAR T cells were treated with Compound 17 during re-challenge with CD19-expressing tumor cells, after which cytolytic activity and cytokine production were assessed.
Cytolytic activity also was assessed in CD19-expressing tumor spheroid cultures incubated with chronically stimulated CAR-T cells in the presence of DGKi. A549 CD19+ tumor spheroids or Granta-519 tumor spheroids were incubated with the anti-CD19 CAR-expressing T cells at an effector to target ratio of 1:2 for up to 14 days in the presence of DGKi (0-1000 nM). The tumor spheroids were engineered to express a red fluorescent dye to permit monitoring of tumor cell lysis by microscopy during the assay. Cytolytic activity was assessed by monitoring fluorescence over time, and the tumor volume (normalized to time zero) was measured as the number of red calibrated units (RCU)×μm^2 area. […]
Supernatant was collected at day 5 from the above tumor spheroid cultures with chronically stimulated CAR-expressing T cells. Cytokine production was measured from the supernatant by meso scale discovery (MSD) analysis of the collected cell supernatants. […]

Human venous whole blood = assay: Human Whole Blood IFN-γ Assay; format: cell-based; settings: anti-CD3 + anti-CD28, 24 h, normalized to 3 μM reference compound, read-out: INFg Whole Blood Normalized-Agonist EC50
Procedure: 9. Human Whole Blood IFN-γ Assay
Human venous whole blood (22.5 μL per well), obtained from healthy donors, was pre-treated with compounds for one hour at 37 °C in a humidified 95% air/5% CO2 incubator. The blood was stimulated with 2.5 μL anti-human CD3 and anti-CD28 mAb at a final concentration of 1 μg/mL each for 24 hours at 37 °C. IFN-γ in the supernatants was measured using AlphLISA kit (Cat #AL217).

CC[C@H]1CN([C@@H](CC)c2ccc(C(F)(F)F)cc2)[C@H](CC)CN1c1nc(=O)n(C)c2ccc(C#N)nc12 [Compound 17, 4-((2S,5R)-2,5-diethyl-4-((S)-1-(4-(trifluoromethyl)phenyl)propyl)piperazin-1-yl)-1-methyl-2-oxo-1,2-dihydropyrido[3,2-d]pyrimidine-6-carbonitrile]
CAR-T cell cytolytic activity against CD19-expressing lymphoma cells [1]: decreased CAR-T cell cytolytic activity against the CD19-expressing lymphoma cells in a dose-dependent manner | cytolytic activity of CAR T cells against K562.CD19 cells (K562.CD19 cells): improved the cytolytic activity of CAR T cells against K562.CD19 and Granta-519 cells | cytolytic activity of CAR T cells (normalized tumor volume) [2]: modestly reduced the cytolytic activity of the CAR T cells | production of IFNγ, IL-2 and TNFα ([3]; 48 h co-culture with K562.CD19, Granta-519, Raji): dose-dependent increase in production of all three cytokines | cytokine production, particularly IL-2, greatest effect ([3]; higher concentrations of Compound 17, Granta-519 cells (low CD19)): greatest effect during co-culture with Granta-519 cells | cytolytic function (specific lysis) [4]: did not affect cytolytic function | production of IFNγ, IL-2 and TNFα [5]: dose-dependent increase in production of all three cytokines | EC50 (Human venous whole blood): 20 nM
